Measured values from PubChem BioAssay (NCI).
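Test compounds were applied to cells in 96-well plates for 48 hours at 5 doses. TGI is the concentration that stops growth completely.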

Legend:
Assay in all cases: NCI tumour cell line growth inhibition, 48 h
PC-3 prostate = system: PC-3 prostate
MDA-N = system: MDA-N
DU-145 prostate = system: DU-145 prostate
HS 578T breast = system: HS 578T breast
MDA-MB-231 breast = system: MDA-MB-231 breast
MCF7 breast = system: MCF7 breast
MDA-MB-435 = system: MDA-MB-435

Measured: TGI

O=c1cnn(C/C=C\CO)c(=O)[nH]1
> 100 µM: all assays above
